Active and inactive are the calls of the source.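 How the source made its calls: active means EC50 at or below 20 micromolar; inactive means the rest.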
molecular target: Neurotensin receptor type 1 (Homo sapiens) (UniProt P30989); experiment: NTSR1 activation via enzyme-fragment complementation – cell-based, luminescence, CHO-K1 NTSR1 PathHunter, orthogonal assay for NTR1 agonist project, SAR follow-up (AID 602427); conditions: CHO-K1 NTSR1 PathHunter beta-arrestin;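 further: agonist potency for NTR1 activation where higher luminescence means more arrestin recruitment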
Sequence (P30989 whole entry, looked up, the tested form may be a part): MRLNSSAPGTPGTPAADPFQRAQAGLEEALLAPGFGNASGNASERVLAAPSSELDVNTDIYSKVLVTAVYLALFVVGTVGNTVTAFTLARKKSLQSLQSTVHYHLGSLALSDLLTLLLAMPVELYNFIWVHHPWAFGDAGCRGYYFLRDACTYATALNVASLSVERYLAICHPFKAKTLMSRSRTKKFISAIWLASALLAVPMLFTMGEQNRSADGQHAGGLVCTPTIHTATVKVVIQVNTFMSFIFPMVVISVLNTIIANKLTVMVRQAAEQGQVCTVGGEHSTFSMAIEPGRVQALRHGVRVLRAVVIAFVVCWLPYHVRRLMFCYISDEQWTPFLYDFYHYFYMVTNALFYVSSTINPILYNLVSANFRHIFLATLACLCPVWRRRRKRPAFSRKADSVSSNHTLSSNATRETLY

Row | SMILES | EC50
1 | COc1cc2c3nnc(-c4ccc(F)cc4)c-3cn(Cc3ccc(Cl)cc3)c2cc1OC | > 33 µM (inactive)
2 | COc1cc2c3nnc(-c4ccc(F)cc4)c-3cn(Cc3ccc(F)cc3)c2cc1OC | > 33 µM (inactive)
3 | COc1ccc(-c2nnc3c4cc(OC)c(OC)cc4n(Cc4ccc(F)cc4)cc2-3)cc1 | > 33 µM (inactive)
4 | CCOc1cc2nc(-c3ccc(OC)c(OC)c3)nc(N3CCN(c4ccccc4F)CC3)c2cc1OC | > 33 µM (inactive)
5 | Cc1ccc(-n2ncc3c(N4CCN(c5ccccc5)CC4)ncnc32)cc1C | > 33 µM (inactive)
6 | COc1ccc(-c2nnc3c4cc(OC)c(OC)cc4n(Cc4ccccc4)cc2-3)cc1 | > 33 µM (inactive)
7 | Clc1ccc(-c2nnc3c4cc5c(cc4n(Cc4ccccc4)cc2-3)OCO5)cc1 | > 33 µM (inactive)
8 | CC(=O)c1ccc(N2CCN(c3ncnc4c3cnn4-c3ccc(C)cc3C)CC2)cc1 | > 33 µM (inactive)
9 | COc1cc2c3nnc(-c4ccc(F)cc4)c-3cn(CCc3ccccc3)c2cc1OC | > 33 µM (inactive)
10 | Cc1ccc(Cn2cc3c(-c4ccc(C)c(C)c4)nnc-3c3cc4c(cc32)OCO4)cc1 | > 33 µM (inactive)
11 | COc1ccccc1-c1nc(C(=O)N[C@@H](CC(C)C)C(=O)O)cn1-c1ccncc1 | > 33 µM (inactive)
12 | COc1cc2nc(C)nc(N3CCN(c4ccccc4OC)CC3)c2cc1OC | > 33 µM (inactive)
13 | Fc1ccc(Cn2cc3c(-c4ccc(Cl)cc4)nnc-3c3cc4c(cc32)OCO4)cc1 | > 33 µM (inactive)
14 | CC(C)C[C@H](NC(=O)c1nc(-c2ccnc3ccccc23)c(-c2ccccc2)s1)C(=O)O | > 33 µM (inactive)
15 | COc1ccc(Cn2cc3c(-c4ccc(F)cc4)nnc-3c3cc(OC)c(OC)cc32)cc1 | > 33 µM (inactive)
16 | CCn1cc2c(-c3ccc(OC)cc3)nnc-2c2ccccc21 | > 33 µM (inactive)
17 | COc1cc2ncnc(N3CCN(c4ccccc4OC)CC3)c2cc1OC | > 33 µM (inactive)
18 | COc1ccc(-c2nnc3c4ccccc4n(Cc4ccc(F)cc4)cc2-3)cc1 | > 33 µM (inactive)
19 | c1ccc(Cn2cc3c(-c4ccccc4)nnc-3c3ccccc32)cc1 | > 33 µM (inactive)
20 | Cc1ccc(Cn2cc3c(-c4ccc(F)cc4)nnc-3c3ccccc32)cc1 | > 33 µM (inactive)
21 | CCCSc1nc2cc(OC)c(OC)cc2c(=N)n1Cc1cccc(C(F)(F)F)c1 | > 33 µM (inactive)
22 | Cc1ccc(Cn2cc3c(-c4ccc(F)cc4)nnc-3c3cc4c(cc32)OCO4)cc1 | > 33 µM (inactive)

Row | SMILES | EC50
23 | COc1ccc(-c2nnc3c4ccccc4n(Cc4ccc(C)cc4)cc2-3)cc1 | > 33 µM (inactive)
24 | COc1cc2nc(C3CCCC3)nc(N3CCN(c4ccccc4OC)CC3)c2cc1OC | inactive
25 | COc1ccc(-c2nc(C(=O)N[C@@H](CC(C)C)C(=O)O)cn2-c2ccnc3cc(Cl)ccc23)c(OC)c1 | > 33 µM (inactive)
26 | COc1ccccc1-c1cc(C(=O)N[C@@H](CC(C)C)C(=O)O)nn1-c1ccnc2cc(Cl)ccc12 | 0.546 µM
27 | COc1cc2nc(-c3ccccc3)nc(N3CCN(c4ccccc4OC)CC3)c2cc1OC | > 33 µM (inactive)
28 | COc1cc2c3nnc(-c4ccccc4)c-3cn(Cc3ccccc3)c2cc1OC | > 33 µM (inactive)
29 | COc1cc2c3nnc(-c4ccc(F)cc4)c-3cn(Cc3ccccc3N(C)C)c2cc1OC | > 33 µM (inactive)
30 | COc1ccc(Cn2cc(C(=O)c3ccc(F)cc3)c(=O)c3cc(OC)c(OC)cc32)cc1 | > 33 µM (inactive)
31 | COc1cc2c(=O)c(C(=O)c3ccc(F)cc3)cn(Cc3ccncc3)c2cc1OC | > 33 µM (inactive)
32 | COc1cc2c3nnc(-c4ccc(C)c(C)c4)c-3cn(Cc3ccc(C)cc3)c2cc1OC | inactive
33 | O=C(O)c1nc(-c2ccnc3ccccc23)c(-c2ccccc2)s1 | > 33 µM (inactive)
34 | CCCSc1nc2cc(OC)c(OC)cc2c(=N)n1Cc1ccccc1Cl | > 33 µM (inactive)
35 | CCOc1ccc(-c2nnc3c4cc(OC)c(OC)cc4n(Cc4ccccc4)cc2-3)cc1 | inactive
36 | CCc1ccc(-c2nnc3c4cc(OC)c(OC)cc4n(Cc4ccc(F)cc4)cc2-3)cc1 | > 33 µM (inactive)
37 | Fc1ccc(-c2nnc3c4cc5c(cc4n(Cc4ccccc4)cc2-3)OCO5)cc1 | > 33 µM (inactive)
38 | COc1cccc(OC)c1-c1nc(C(=O)N[C@@H](CC(C)C)C(=O)O)cn1-c1ccc(C)cc1 | > 33 µM (inactive)
39 | COc1cccc(OC)c1-c1cc(C(=O)NC2(C(=O)O)C3CC4CC(C3)CC2C4)nn1-c1ccc(C(=O)N(C)CCCN(C)C)cc1C(C)C (configuration not stated) | > 33 µM (inactive)
40 | CCOc1ccc(-c2nnc3c4cc(OC)c(OC)cc4n(Cc4ccc(C)cc4)cc2-3)cc1 | > 33 µM (inactive)
41 | COc1ccc2c3nnc(-c4ccc(C)cc4)c-3cn(Cc3ccc(F)cc3)c2c1 | > 33 µM (inactive)
42 | COc1cc2c3nnc(-c4ccc(F)cc4)c-3cn(Cc3ccccc3)c2cc1OC | inactive
43 | COc1cccc(OC)c1-c1cc(C(=O)N[C@@H](CC(C)C)C(=O)O)nn1-c1ccnc2cc(Cl)ccc12 | > 33 µM (inactive)
44 | COc1cc2c3nnc(-c4ccc(C)c(C)c4)c-3cn(Cc3ccccc3)c2cc1OC | inactive

Row | SMILES | EC50
45 | COc1cc2c3nnc(-c4ccccc4)c-3cn(Cc3ccc(F)cc3)c2cc1OC | > 33 µM (inactive)
46 | COc1cccc(OC)c1-c1nc(C(=O)N[C@@H](CC(C)C)C(=O)O)cn1-c1ccnc2cc(Cl)ccc12 | 6.1 µM
47 | COc1cccc(OC)c1-c1nc(C(=O)N[C@@H](CC(C)C)C(=O)O)cn1-c1cccc2ccccc12 | 6.08 µM
48 | COc1cc2nc(Cc3ccccc3)nc(N3CCN(c4ccccc4OC)CC3)c2cc1OC | > 33 µM (inactive)
49 | Cc1ccc(-n2ncc3c(N4CCN(c5ccccc5F)CC4)ncnc32)c(C)c1 | > 33 µM (inactive)
50 | CCOc1cc2c(N3CCN(c4ccccc4OC)CC3)nc(-c3ccc(OC)c(OC)c3)nc2cc1OC | > 33 µM (inactive)
51 | COc1cccc(N2CCN(c3nc(C4CCC4)nc4cc(OC)c(OC)cc34)CC2)c1 | > 33 µM (inactive)
52 | Cc1ccc(-c2nnc3c4cc5c(cc4n(Cc4ccccc4)cc2-3)OCO5)cc1C | > 33 µM (inactive)
53 | CN(C)S(=O)(=O)c1ccc(-c2csc(N/N=C/c3ccco3)n2)cc1 | > 33 µM (inactive)
54 | COc1ccc(C(=O)c2cn(Cc3ccc(C)cc3)c3ccccc3c2=O)cc1 | > 33 µM (inactive)
55 | COc1cc2nc(C3CC3)nc(N3CCN(c4ccccc4OC)CC3)c2cc1OC | 3.8 µM
56 | COc1cc2c3nnc(-c4ccc(C)cc4)c-3cn(Cc3ccc(F)cc3)c2cc1OC | inactive
57 | COc1ccc2c(c1)c1nnc(-c3ccc(F)cc3)c-1cn2Cc1ccc(C)cc1 | > 33 µM (inactive)
58 | CN(C)S(=O)(=O)c1ccc(-c2csc(N/N=C/c3cccc(Cl)c3)n2)cc1 | > 33 µM (inactive)
59 | COc1cccc(OC)c1-c1nc(C(=O)NC2(C(=O)O)C3CC4CC(C3)CC2C4)cn1-c1ccnc2cc(Cl)ccc12 (configuration not stated) | > 33 µM (inactive)
60 | COc1cc2nc(C3CCC3)nc(N3CCN(c4ccccc4F)CC3)c2cc1OC | > 33 µM (inactive)
61 | CCc1ccc(-c2nnc3c4cc(OC)c(OC)cc4n(Cc4ccccc4)cc2-3)cc1 | > 33 µM (inactive)
62 | CC(C)C[C@H](NC(=O)c1cn(-c2ccnc3cc(Cl)ccc23)c(-c2ccccc2)n1)C(=O)O | > 33 µM (inactive)
63 | Cc1ccc(-c2nnc3c4cc5c(cc4n(Cc4ccc(F)cc4)cc2-3)OCO5)cc1C | > 33 µM (inactive)
64 | Cc1cc(Cl)ccc1-n1ncc2c(N3CCN(c4ccccc4)CC3)ncnc21 | > 33 µM (inactive)
65 | COc1ccc(Cn2c(SCc3ccccc3)nc3cc(OC)c(OC)cc3c2=N)cc1Cl | > 33 µM (inactive)
66 | COc1ccc(C(=O)c2cn(Cc3ccc(Cl)cc3)c3ccccc3c2=O)cc1 | > 33 µM (inactive)

Row | SMILES | EC50
67 | COc1cc2c3nnc(-c4ccc(F)cc4)c-3cn(Cc3ccccn3)c2cc1OC | > 33 µM (inactive)
68 | COc1cccc2c(C(=O)N[C@@H](CC(C)C)C(=O)O)cn(-c3ccnc4ccccc34)c12 | > 33 µM (inactive)
69 | CCOc1ccc(-c2nnc3c4cc(OC)c(OC)cc4n(Cc4ccc(F)cc4)cc2-3)cc1 | inactive
70 | Cc1ccc(-n2ncc3c(N4CCN(c5cc(C)ccc5C)CC4)ncnc32)c(C)c1 | > 33 µM (inactive)
71 | COc1ccc2c(c1)c(=O)c(C(=O)c1ccc(F)cc1)cn2Cc1ccc(F)cc1 | > 33 µM (inactive)
72 | Clc1cccc(-n2ncc3c(N4CCN(c5ccccc5)CC4)ncnc32)c1 | > 33 µM (inactive)
73 | COc1cc2nc(-c3ccccc3)nc(N3CCN(c4ccccc4F)CC3)c2cc1OC | > 33 µM (inactive)
74 | Cc1ccc(-n2ncc3c(N4CCN(c5ccc(Cl)c(Cl)c5)CC4)ncnc32)c(C)c1 | > 33 µM (inactive)
75 | COc1ccc(N2CCN(c3nc(C4CCC4)nc4cc(OC)c(OC)cc34)CC2)cc1 | > 33 µM (inactive)
76 | O=S(=O)(c1ccc(-c2csc(N/N=C/c3ccco3)n2)cc1)N1CCOCC1 | > 33 µM (inactive)
77 | COc1ccccc1-c1cc(C(=O)N[C@@H](CC(C)C)C(=O)OC(C)(C)C)nn1-c1ccnc2cc(Cl)ccc12 | > 33 µM (inactive)
78 | Cc1ccc(-n2ncc3c(N4CCN(c5ccccc5Cl)CC4)ncnc32)c(C)c1 | > 33 µM (inactive)
79 | CN(C)S(=O)(=O)c1ccc(-c2csc(N/N=C/c3ccccc3)n2)cc1 | > 33 µM (inactive)
80 | COc1ccc(Cn2cc(C(=O)c3ccc(OC)cc3)c(=O)c3ccccc32)cc1 | > 33 µM (inactive)
81 | COc1ccccc1N1CCN(c2nc(C3CCC3)nc3cc4c(cc23)OCO4)CC1 | > 33 µM (inactive)
82 | CCOC(=O)c1cc(-c2c(OC)cccc2OC)n(-c2ccnc3cc(Cl)ccc23)n1 | > 33 µM (inactive)
83 | O=S(=O)(c1ccc(-c2csc(N/N=C/c3ccco3)n2)cc1)N1CCCC1 | > 33 µM (inactive)
84 | COc1ccc(C(=O)c2cn(Cc3ccccc3)c3ccccc3c2=O)cc1 | > 33 µM (inactive)
85 | COc1ccc2c3nnc(-c4ccc(C)cc4)c-3cn(Cc3ccccc3)c2c1 | > 33 µM (inactive)
86 | CCOc1cc2nc(-c3ccc(OC)c(OC)c3)nc(N3CCN(c4ccccc4)CC3)c2cc1OC | > 33 µM (inactive)
87 | COc1ccc(-c2nnc3c4ccccc4n(CC4CC4)cc2-3)cc1 | > 33 µM (inactive)
